Experimental data as given in US6319929A, “Suksdorfin analogs, compositions thereof, and methods for making and using thereof” (priority 1998, dated 2001).
“Also recorded” adds a separate entry of the source. Read-outs that look alike come from different tables or passages of the source.

Columns and labels:
uninfected H9 cells = experiment: Toxicity to uninfected H9 cells (cell growth); type: cell-based; details: Homo sapiens
Description: HIV inhibition assay. The HIV inhibition was measured as described herein. Briefly, H9 cells, a T cell line, (3.5×10^6 cells/ml) were incubated in the presence or absence of HIV-1 (IIIB strain, 0.01-0.1 TCID50 /cell) for 1 hour at 37° C. Cells were washed thoroughly and resuspended at a final concentration of 2×10^5 cells/ml in the presence or absence of compound. After incubation for 3-4 days at 37° C., the cell density of uninfected cultures was determined by cell count to assess toxicity of the drug. An aliquot of each cell-free supernatant was assayed by p24 antigen ELISA to quantitate the amount of HIV-1 present in the infected cultures. Test compounds were considered to be active at a particular concentration if p24 antigen levels were less than 70% of infected, untreated controls and were nontoxic to uninfected H9 cells.
(§1) HIV Growth Inhibition Assay: The T cell line, H9, and the promonocytic cell line, U937, were maintained separately in continuous culture with complete medium (RPMI 1640 and […] fetal calf serum (FCS) at 5% CO2 and 37° C. Cell lines were used in experiments only when in log phase of growth; whereas, uninfected peripheral blood mononuclear cells (PBMCs) were first stimulated with PHA (1 μg/ml) for 3 days. All cell targets were incubated with HIV-1 (IIIB isolate, TCID50 10 ^4 IU/mi, at a multiplicity of infection of 0.1-0.01 IU/cell) for 1 hour at 37° C. and 5% CO2. The cell lines and PBMCs were washed thoroughly to remove unabsorbed virions and resuspended at 4×10^5 cells/ml in complete medium or complete medium with 10% v/v interleukin […] IL-2, respectively. Aliquots ( ml) were placed in wells of 24-well culture plates containing an equal volume of test compound (diluted in the appropriate culture medium). After incubation for 4 days at 37° C., cell density of uninfected cultures was determined by counting cells in a Coulter counter to assess toxicity of the test compound. A p24 antigen ELISA assay was used to determine the level of virus released in the medium of the HIV-infected cultures. The p24 antigen assay uses a HIV-1 anti-p24 specific monoclonal antibody as the capture antibody coated-on 96-well plates. Following a sample incubation period, rabbit serum containing antibodies for HIV-1 p24 is used to tag any p24 "captured" onto the microtiter well surface. Peroxidase conjugated goat anti-rabbit serum is then used to tag HIV-1 p24 specific rabbit antibodies which have complexed with captured p24. […] The cut-off for the p24 ELISA assay is 12. pg/ml. P24 in the culture medium was quantitated against a standard curve containing known amounts of p24. The effective (EC50) and inhibitory (IC50) concentrations (for anti-HIV activity and cytotoxicity, respectively) were determined graphically. Both the EC50 and IC50 values were calculated by plotting drug concentration versus percent inhibition, and then identifying a 50% inhibition value from the graph.

[1] = test system: HIV-1 replication in H9 cells; experiment: Combination study of suksdorfin with AZT, ddI and ddC: HIV-1 replication in acutely infected H9 cells; type: cell-based, HIV-1 (IIIB)
Description: as §1, with “surface.” for “surface. Peroxidase conjugated goat anti-rabbit serum is then used to tag HIV-1 p24 specific rabbit antibodies which have complexed with captured p24.”, “The effective (EC50) and inhibitory (IC50) concentrations (for anti-HIV activity and cytotoxicity, respectively) were determined graphically.” left out
Combination Study: The experimental design is identical to the growth inhibition assay except that various concentrations of AZT, ddI or ddC were also added to cultures of acutely HIV-1 infected H9 cells that either have or have no received different concentrations of suksdorfin. The concentrations of AZT, ddI and ddC were 5 ten-fold dilutions starting at 1 μg/ml. [drawing 104] [drawing 105]

[2] = test system: HIV-1 replication in fresh monocytes; experiment: HIV-1 infection of fresh monocytes obtained by adherence (p24); type: cell-based; details: for inhibition at 0.032 µg/mL / inhibition at 0.16 µg/mL / inhibition at 0.8 µg/mL / inhibition at 4 µg/mL / inhibition at 20 µg/mL: Human immunodeficiency virus 1, Monocyte, read-out: % suppression
Text: Results (Table 12) from adding Suksdorfin to fresh monocytes infected with HIV-1.
The monocytes which were used for this experiment were obtained by adherence and not by elutriation; therefore, this cell population is not as pure as what was used for the 16 monocyte data above.

## CC(=O)O[C@@H]1[C@H](OC(=O)CC(C)C)c2c(ccc3ccc(=O)oc23)OC1(C)C [Suksdorfin, suksdorfin]
Uninfected H9 cells; H9, Table 14, concentration which inhibits uninfected cell growth by 50%, read-out: IC50 (μM)^a
  IC50: > 52 µM
Uninfected H9 cells; H9, Table 17, uninfected H9 cell growth, read-out: IC50
  IC50: > 52 µM
Uninfected H9 cells; H9, concentration which inhibits uninfected cell growth by 50%, read-out: IC50
  IC50: > 52 µM
[1]; H9
  synergy with AZT, ddI and ddC: act synergistically with AZT, ddI and ddC
[1]; H9, listed as 1
  synergy with AZT, ddI and ddC: potentiate the anti-HIV effects of three nucleosides; also recorded: synergistic effect against HIV replication
[1]; Human immunodeficiency virus 1, H9, Table 5, combinations with 4 μg/ml suksdorfin, read-out: EC50
  EC50: 2.8 µg/mL
[1]; Human immunodeficiency virus 1, H9, Table 16, concentration which inhibits viral replication by 50%, combinations with 4 μg/ml suksdorfin, read-out: IC50 (μM)^b
  IC50: 2.8 µg/mL
[1]; Human immunodeficiency virus 1, H9, later value, read-out: EC50 (value after increase)
  EC50: 1.5 to 2.8 µg/mL
[1]; Human immunodeficiency virus 1, 4 μg/ml suksdorfin, H9
  inhibition at 4 µg/mL: 64%
[2]; Day 6, 0.032 μg/ml
  p24: 64,614 pg/ml
[2]; Day 6, 0.16 μg/ml
  p24: 70,195 pg/ml
[2]; Day 6, 0.8 μg/ml
  p24: 53,043 pg/ml
[2]; Day 6, 4 μg/ml
  p24: 48,748 pg/ml
[2]; Day 6, 20 μg/ml
  p24: 16,712 pg/ml
[2]; Day 12, 0.032 μg/ml
  p24: 173,998 pg/ml
[2]; Day 12, 0.16 μg/ml
  p24: 203,633 pg/ml
[2]; Day 12, 0.8 μg/ml
  p24: 163,656 pg/ml
[2]; Day 12, 4 μg/ml
  p24: 89,467 pg/ml
[2]; Day 12, 20 μg/ml
  p24: 25,567 pg/ml
[2]; Day 18, 0.032 μg/ml
  p24: 105,882 pg/ml
[2]; Day 18, 0.16 μg/ml
  p24: 125,440 pg/ml
[2]; Day 18, 0.8 μg/ml
  p24: 130,970 pg/ml
[2]; Day 18, 4 μg/ml
  p24: 103,834 pg/ml
[2]; Day 18, 20 μg/ml
  p24: 23,506 pg/ml
[2]; 144 h, Day 6, 0.032 μg/ml
  inhibition at 0.032 µg/mL: 0%
[2]; 144 h, Day 6, 0.16 μg/ml
  inhibition at 0.16 µg/mL: 0%
[2]; 144 h, Day 6, 0.8 μg/ml
  inhibition at 0.8 µg/mL: 0%
[2]; 144 h, Day 6, 4 μg/ml
  inhibition at 4 µg/mL: 18%
[2]; 144 h, Day 6, 20 μg/ml
  inhibition at 20 µg/mL: 72%
[2]; 288 h, Day 12, 0.032 μg/ml
  inhibition at 0.032 µg/mL: 0%
[2]; 288 h, Day 12, 0.16 μg/ml
  inhibition at 0.16 µg/mL: 0%
[2]; 288 h, Day 12, 0.8 μg/ml
  inhibition at 0.8 µg/mL: 40%
[2]; 288 h, Day 12, 4 μg/ml
  inhibition at 4 µg/mL: 67%
[2]; 288 h, Day 12, 20 μg/ml
  inhibition at 20 µg/mL: 91%
[2]; 432 h, Day 18, 0.032 μg/ml
  inhibition at 0.032 µg/mL: 0%
[2]; 432 h, Day 18, 0.16 μg/ml
  inhibition at 0.16 µg/mL: 0%
[2]; 432 h, Day 18, 0.8 μg/ml
  inhibition at 0.8 µg/mL: 0%
[2]; 432 h, Day 18, 4 μg/ml
  inhibition at 4 µg/mL: 0%
[2]; 432 h, Day 18, 20 μg/ml
  inhibition at 20 µg/mL: 78%
[2]; suksdorfin at 20 and 4 μg/ml, AZT positive control
  suppression of HIV-1 replication in fresh monocytes (in words): did suppress HIV-1 replication in fresh monocytes

## Cc1cn([C@H]2C[C@H](N=[N+]=[N-])[C@@H](CO)O2)c(=O)[nH]c1=O [AZT, azidothymidine, reference compound]
Uninfected H9 cells; H9, Table 3, H9 lymphocytes
  IC50: 2000 µM
Uninfected H9 cells; H9, Table 17, uninfected H9 cell growth
  IC50: 1880 µM
[1]; Human immunodeficiency virus 1, H9
  EC50: 0.04 µg/mL
[1]; Human immunodeficiency virus 1, H9, read-out: IC50 (μM)^b
  IC50: 0.04 µg/mL
[1]; Table 5, combinations with 4 μg/ml suksdorfin
  Therapeutic Index: > 25
[1]; Table 16, combinations with 4 μg/ml suksdorfin
  Therapeutic Index: > 25
[1]; with 4 μg/ml suksdorfin, H9
  decrease of EC50 in presence of suksdorfin: 400 fold
  increase of TI value in presence of suksdorfin: 400 fold
[2]; Day 6, 0.008 μg/ml
  p24: 42,004 pg/ml
[2]; Day 6, 0.04 μg/ml
  p24: 23,234 pg/ml
[2]; Day 6, 0.2 μg/ml
  p24: 34,360 pg/ml
[2]; Day 6, 1 μg/ml
  p24: 8,705 pg/ml
[2]; Day 6, 5 μg/ml
  p24: 13,542 pg/ml
[2]; Day 12, 0.008 μg/ml
  p24: 70,380 pg/ml
[2]; Day 12, 0.04 μg/ml
  p24: 17,144 pg/ml
[2]; Day 12, 0.2 μg/ml
  p24: 32,778 pg/ml
[2]; Day 12, 1 μg/ml
  p24: 5,354 pg/ml
[2]; Day 12, 5 μg/ml
  p24: 10,170 pg/ml
[2]; Day 18, 0.008 μg/ml
  p24: 75,428 pg/ml
[2]; Day 18, 0.04 μg/ml
  p24: 22,993 pg/ml
[2]; Day 18, 0.2 μg/ml
  p24: 31,759 pg/ml
[2]; Day 18, 1 μg/ml
  p24: 6,830 pg/ml
[2]; Day 18, 5 μg/ml
  p24: 12,330 pg/ml
